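These data come from cells grown in 96-well plates and exposed to compound for 48 hours at five concentrations. TGI denotes the concentration required for complete inhibition of growth.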

Some test systems named below: OVCAR-3 ovarian; BT-549 breast; OVCAR-5 ovarian; SK-MEL-28 melanoma; LOX IMVI melanoma; EKVX NSCLC; UACC-62 melanoma; A498 renal; NCI/ADR-RES ovarian; SR leukemia.
Holding throughout (experiment): DTP human tumour cell line panel, 48 h

Take `NCCCNCCCCN1CC1`: the TGI is 4.78 µM with OVCAR-3 ovarian; above 20.5 µM in the assay on BT-549 breast; above 33.8 µM in the assay with OVCAR-5 ovarian; above 20.1 µM in the assay on SK-MEL-28 melanoma; 11.8 µM in the assay on LOX IMVI melanoma; 16.7 µM in the assay on EKVX NSCLC. For the same molecule, the TGI with UACC-62 melanoma was 68.8 µM; with A498 renal it was 2.14 µM; in the assay on NCI/ADR-RES ovarian, above 20.7 µM.
As for `CCOC(=O)C(NC(=O)OC(C)(C)C)C(=O)OCC`, the TGI in the assay with BT-549 breast, in the assay with OVCAR-5 ovarian, with SK-MEL-28 melanoma, with EKVX NSCLC, in the assay on UACC-62 melanoma and with NCI/ADR-RES ovarian was above 100 µM throughout. The molecule further had a TGI in the assay with SR leukemia above 100 µM.
As for `O=C1C(=Cc2ccc(Cl)c(Cl)c2)C([O-])=C([P+](c2ccccc2)(c2ccccc2)c2ccccc2)C([O-])=C1[P+](c1ccccc1)(c1ccccc1)c1ccccc1`, the TGI came to 3.74 µM in the assay with OVCAR-3 ovarian; 5.19 µM in the assay with BT-549 breast; 12.6 µM in the assay on OVCAR-5 ovarian; 6.07 µM in the assay on SK-MEL-28 melanoma; 2.67 µM in the assay with LOX IMVI melanoma; 6.64 µM with EKVX NSCLC. In addition, the TGI in the assay on UACC-62 melanoma came to 5.29 µM; in the assay with A498 renal it was 31.9 µM; in the assay with NCI/ADR-RES ovarian it was 19.3 µM; with SR leukemia it was 11.6 µM.
`CC(=O)/C(=C/N1CCNC1=S)C(=O)Nc1ccccc1C`: the TGI in the assay on OVCAR-3 ovarian, with BT-549 breast, in the assay on OVCAR-5 ovarian, with SK-MEL-28 melanoma, with LOX IMVI melanoma and in the assay with EKVX NSCLC was above 100 µM each time. Further, the TGI in the assay with UACC-62 melanoma, in the assay with A498 renal, in the assay on NCI/ADR-RES ovarian and in the assay with SR leukemia was above 100 µM throughout.
`S=c1[nH]c2ccc(I)cc2c(=S)n1Cc1ccccc1`: the TGI in the assay on OVCAR-3 ovarian is 8.07 µM; in the assay on BT-549 breast, 27 µM; with OVCAR-5 ovarian, 43.9 µM; in the assay with SK-MEL-28 melanoma, above 100 µM; in the assay on LOX IMVI melanoma, 16 µM; in the assay with EKVX NSCLC it was 23.7 µM. Also, the TGI worked out at 55.4 µM with A498 renal, 25.5 µM with NCI/ADR-RES ovarian and 14.9 µM in the assay with SR leukemia.
As to `COc1ccc(N2NC(c3ccccc3)(c3ccccc3)C(C)C2=O)cc1` (stereo not given), the TGI in the assay with OVCAR-3 ovarian, in the assay on BT-549 breast, with OVCAR-5 ovarian, with SK-MEL-28 melanoma, in the assay on LOX IMVI melanoma and with EKVX NSCLC was above 100 µM in each case. In addition, the TGI in the assay on UACC-62 melanoma, with A498 renal, in the assay with NCI/ADR-RES ovarian and with SR leukemia was above 100 µM each time.
`CCCCCCCCCCCCCC(=O)N(CCCCCCCCC)CC(O)C(O)C(OC1OC(CO)C(O)C(O)C1O)C(O)CO` (stereo not given): the TGI in the assay on OVCAR-3 ovarian is 53.1 µM; with BT-549 breast, 43.7 µM; in the assay with OVCAR-5 ovarian, above 100 µM; in the assay with SK-MEL-28 melanoma, 33.6 µM; with LOX IMVI melanoma, 39.6 µM; in the assay on EKVX NSCLC it was 34.5 µM. In addition, the TGI in the assay on UACC-62 melanoma is 38.2 µM; with A498 renal, 35.9 µM; in the assay with NCI/ADR-RES ovarian, 37.7 µM; in the assay with SR leukemia, 46.2 µM.
With `CCOc1ccc2c(c1)c(=O)c1c(NCCN(CC)CC)ccc3nnn2c31`, the TGI in the assay with OVCAR-3 ovarian is above 100 µM; with BT-549 breast, above 100 µM; in the assay with OVCAR-5 ovarian it was above 54.8 µM; in the assay on SK-MEL-28 melanoma it was above 55 µM; in the assay on LOX IMVI melanoma, 32 µM; with EKVX NSCLC, above 100 µM. Besides, the TGI in the assay on UACC-62 melanoma was above 100 µM; with A498 renal it was above 100 µM; in the assay with NCI/ADR-RES ovarian, above 54.2 µM; with SR leukemia it was 50.1 µM.
Take `CNc1ncnc2c1cnn2Cc1cn(COCC(O)CO)nn1` (stereo not given): the TGI with OVCAR-3 ovarian, in the assay with BT-549 breast, with OVCAR-5 ovarian, in the assay with SK-MEL-28 melanoma, with LOX IMVI melanoma and in the assay with EKVX NSCLC was above 100 µM throughout. The TGI in the assay with UACC-62 melanoma, with A498 renal and with NCI/ADR-RES ovarian was above 100 µM each time.
Regarding `CC1=C(C)C(=O)C(C2=CC(=O)C=CC2=O)=C(C2=CC(=O)C=CC2=O)C1=O`, the TGI in the assay on BT-549 breast is above 100 µM; with OVCAR-5 ovarian it was above 100 µM; with SK-MEL-28 melanoma, above 100 µM; in the assay with LOX IMVI melanoma, above 96.1 µM; in the assay with EKVX NSCLC, above 100 µM; in the assay with UACC-62 melanoma, above 100 µM. The TGI in the assay with A498 renal and in the assay on NCI/ADR-RES ovarian was above 100 µM throughout.
Turning to `O=c1[nH]c(=S)c2cc3c(=S)[nH]c(=O)n(CCO)c3nc2n1CCO`, the TGI with OVCAR-3 ovarian, in the assay on BT-549 breast, in the assay on OVCAR-5 ovarian, with SK-MEL-28 melanoma, in the assay with LOX IMVI melanoma and with EKVX NSCLC was above 100 µM each time. The TGI in the assay with A498 renal, in the assay with NCI/ADR-RES ovarian and in the assay on SR leukemia was above 100 µM each time.
Regarding `CCOC(=O)/C=C(\C(=O)OCC)n1ccc(=O)[nH]c1=O`, the TGI is 26.1 µM with OVCAR-3 ovarian; 30.7 µM in the assay with BT-549 breast; 34.8 µM in the assay with OVCAR-5 ovarian; 33.4 µM in the assay with SK-MEL-28 melanoma; 28.7 µM with LOX IMVI melanoma; 34.9 µM with EKVX NSCLC. Besides, the total growth inhibition concentration (TGI) in the assay with UACC-62 melanoma is 31.3 µM; with A498 renal, 34.8 µM; in the assay on NCI/ADR-RES ovarian, above 93 µM; with SR leukemia, 29.7 µM.
Take `O=[N+]([O-])C(Cl)=C/C(=C(\Cl)SCc1ccccc1)[N+](=O)[O-]`: the TGI stood at 32 µM in the assay with OVCAR-3 ovarian; 50.2 µM with BT-549 breast; 52.4 µM in the assay on OVCAR-5 ovarian; 59.7 µM with SK-MEL-28 melanoma; 33.6 µM in the assay on LOX IMVI melanoma; 35.2 µM in the assay on EKVX NSCLC. In addition, the concentration for total growth inhibition (TGI) with UACC-62 melanoma was above 100 µM; with A498 renal, 81.4 µM; in the assay on NCI/ADR-RES ovarian it was above 100 µM.
For `OC1C[C@H](c2ccccc2)C2(C(O)c3ccccc3C2O)[C@@H](c2ccccc2)C1` (stereo not given in full), the TGI in the assay with OVCAR-3 ovarian, in the assay on BT-549 breast, with OVCAR-5 ovarian, with SK-MEL-28 melanoma, with LOX IMVI melanoma and in the assay with EKVX NSCLC was above 100 µM in each case. Also, the TGI is above 100 µM with UACC-62 melanoma, above 100 µM in the assay with A498 renal, above 100 µM in the assay with NCI/ADR-RES ovarian and 68.1 µM with SR leukemia.

The values are drawn from PubChem BioAssay (NCI).
